Measured values published in patent US4307016A, “Demethyl maytansinoids” (priority 1978, dated 1981).
In brackets after ≈: the same amount, converted by molar mass.

Test system: not listed separately
Experiment: Solubility
Details: benzene, ether (Table 4)

Row | SMILES | Solubility in benzene, ether
1 | COC1C=CC=C(C)Cc2cc(O)c(Cl)c(c2)N(C)C(=O)CC(OC(C)=O)C2(C)OC2C(C)C2CC1(O)NC(=O)O2 (stereo not shown) [20-Demethoxy-20-hydroxymaytanacine] | Slightly soluble
2 | CCC(=O)OC1CC(=O)N(C)c2cc(cc(O)c2Cl)CC(C)=CC=CC(OC)C2(O)CC(OC(=O)N2)C(C)C2OC12C (stereo not shown) [20-Demethoxy-20-hydroxymaytansinol propionate] | Slightly soluble
3 | COC1C=CC=C(C)Cc2cc(O)c(Cl)c(c2)N(C)C(=O)CC(O)C2(C)OC2C(C)C2CC1(O)NC(=O)O2 (stereo not shown) [20-Demethoxy-20-hydroxymaytansinol] | Slightly soluble
4 | COC1C=CC=C(C)Cc2cc(O)c(Cl)c(c2)N(C)C(=O)CC(OC(=O)CC(C)C)C2(C)OC2C(C)C2CC1(O)NC(=O)O2 (stereo not shown) [PDM-4, 20-demethoxy-20-hydroxymaytansinol 3-isovalerate] | Slightly soluble

Same assay, conditions: organic solvents (Table 3)

Row | SMILES | Solubility in chloroform, ethyl acetate, acetone, ethanol, methanol, pyridine, tetrahydrofuran & dimethylsulfoxide
5 | COc1cc2cc(c1Cl)N(C)C(=O)CC(OC(=O)C(C)C)C1(C)OC1C(C)C1CC(O)(NC(=O)O1)C(OC)C=CC=C(C)C2 (stereo not shown) [Ansamitocin P-3, reference compound] | Soluble
6 | COc1cc2cc(c1Cl)N(C)C(=O)CC(OC(=O)CC(C)C)C1(C)OC1C(C)C1CC(O)(NC(=O)O1)C(OC)C=CC=C(C)C2 (stereo not shown) [Ansamitocin P-4, reference compound] | Soluble

Same assay, conditions: organic solvents (Table 4)

Row | SMILES | Solubility in chloroform, ethyl acetate, tetrahydrofuran, acetone, ethanol, methanol
7 | COC1C=CC=C(C)Cc2cc(O)c(Cl)c(c2)N(C)C(=O)CC(OC(C)=O)C2(C)OC2C(C)C2CC1(O)NC(=O)O2 (stereo not shown) [20-Demethoxy-20-hydroxymaytanacine] | Soluble
8 | CCC(=O)OC1CC(=O)N(C)c2cc(cc(O)c2Cl)CC(C)=CC=CC(OC)C2(O)CC(OC(=O)N2)C(C)C2OC12C (stereo not shown) [20-Demethoxy-20-hydroxymaytansinol propionate] | Soluble
9 | COC1C=CC=C(C)Cc2cc(O)c(Cl)c(c2)N(C)C(=O)CC(O)C2(C)OC2C(C)C2CC1(O)NC(=O)O2 (stereo not shown) [20-Demethoxy-20-hydroxymaytansinol] | Soluble
10 | COC1C=CC=C(C)Cc2cc(O)c(Cl)c(c2)N(C)C(=O)CC(OC(=O)CC(C)C)C2(C)OC2C(C)C2CC1(O)NC(=O)O2 (stereo not shown) [PDM-4, 20-demethoxy-20-hydroxymaytansinol 3-isovalerate] | Soluble

Same assay, conditions: petr. ether, n-hexane & water (Table 3)

Row | SMILES | Solubility in petr. ether, n-hexane & water
11 | COc1cc2cc(c1Cl)N(C)C(=O)CC(OC(=O)C(C)C)C1(C)OC1C(C)C1CC(O)(NC(=O)O1)C(OC)C=CC=C(C)C2 (stereo not shown) [Ansamitocin P-3, reference compound] | Insoluble
12 | COc1cc2cc(c1Cl)N(C)C(=O)CC(OC(=O)CC(C)C)C1(C)OC1C(C)C1CC(O)(NC(=O)O1)C(OC)C=CC=C(C)C2 (stereo not shown) [Ansamitocin P-4, reference compound] | Insoluble

Same assay, conditions: pyridine, dimethyl sulfoxide (Table 4)

Row | SMILES | Solubility in pyridine, dimethyl sulfoxide
13 | COC1C=CC=C(C)Cc2cc(O)c(Cl)c(c2)N(C)C(=O)CC(OC(C)=O)C2(C)OC2C(C)C2CC1(O)NC(=O)O2 (stereo not shown) [20-Demethoxy-20-hydroxymaytanacine] | Freely soluble
14 | CCC(=O)OC1CC(=O)N(C)c2cc(cc(O)c2Cl)CC(C)=CC=CC(OC)C2(O)CC(OC(=O)N2)C(C)C2OC12C (stereo not shown) [20-Demethoxy-20-hydroxymaytansinol propionate] | Freely soluble
15 | COC1C=CC=C(C)Cc2cc(O)c(Cl)c(c2)N(C)C(=O)CC(O)C2(C)OC2C(C)C2CC1(O)NC(=O)O2 (stereo not shown) [20-Demethoxy-20-hydroxymaytansinol] | Freely soluble
16 | COC1C=CC=C(C)Cc2cc(O)c(Cl)c(c2)N(C)C(=O)CC(OC(=O)CC(C)C)C2(C)OC2C(C)C2CC1(O)NC(=O)O2 (stereo not shown) [PDM-4, 20-demethoxy-20-hydroxymaytansinol 3-isovalerate] | Freely soluble

Test system: Hamigera avellanea IFO 7721
Experiment: Antifungal activity, paper disc method (zone of growth inhibition)
Format: cell-based
Details: Hamigera avellanea, IFO7721, paper disc (8 mm diam.), 0.02 ml of a 100 μg/ml solution; read-out: Antifungal activity, (φ mm), zone of growth inhibition
Procedure: On the other hand, on agar plates [3.5 g disodium hydrogen phosphate, 0.5 g monopotassium phosphate, 5 g of yeast extract (Difco), 10 g glucose, 15 g agar, 1000 ml distilled water, pH 7.0], the antifungal activity of the test compound was assayed against Hamigera avellanea IFO 7721 by the paper disc method. Thus, on the plates inoculated with the above microorganism, the zones of growth inhibition were determined using paper discs immersed with 0.02 ml of a 100 μg/ml solution of demethylmaytansinoid compound (I).

Row | SMILES | zone of inhibition at 100 µg/mL [mm]
17 | COC1C=CC=C(C)Cc2cc(O)c(Cl)c(c2)N(C)C(=O)CC(OC(=O)Cc2ccccc2)C2(C)OC2C(C)C2CC1(O)NC(=O)O2 (stereo not shown) [20-Demethoxy-20-hydroxymaytansinol 3-phenylacetate] | 23
18 | COC1C=CC=C(C)Cc2cc(O)c(Cl)c(c2)N(C)C(=O)CC(OC(=O)C(C)C)C2(C)OC2C(C)C2CC1(O)NC(=O)O2 (stereo not shown) [PDM-3] | 21

Same assay, conditions: Hamigera avellanea, IFO7721, read-out: Antifungal activity, (φ mm), zone of growth inhibition, paper disc (8 mm diam.), 0.02 ml of a 100 μg/ml solution

Row | SMILES | zone of inhibition at 100 µg/mL [mm]
19 | COC1C=CC=C(C)Cc2cc(O)cc(c2)N(C)C(=O)CC(OC(=O)C(C)C)C2(C)OC2C(C)C2CC1(O)NC(=O)O2 (stereo not shown) [20-Demethoxy-20-hydroxydechloromaytansinol 3-isobutyrate] | 16
20 | COC1C=CC=C(C)Cc2cc(O)c(Cl)c(c2)N(C)C(=O)CC(OC(C)=O)C2(C)OC2C(C)C2CC1(O)NC(=O)O2 (stereo not shown) [20-Demethoxy-20-hydroxymaytanacine] | 10
21 | COC1C=CC=C(C)Cc2cc(O)c(Cl)c(c2)N(C)C(=O)CC(OC(=O)[C@H](C)N(C)C(=O)C(C)C)C2(C)OC2C(C)C2CC1(O)NC(=O)O2 (stereo partly shown) [20-Demethoxy-20-hydroxymaytanbutine (L)] | 24
22 | CCC(=O)N(C)[C@@H](C)C(=O)OC1CC(=O)N(C)c2cc(cc(O)c2Cl)CC(C)=CC=CC(OC)C2(O)CC(OC(=O)N2)C(C)C2OC12C (stereo partly shown) [20-Demethoxy-20-hydroxymaytanprine (L)] | 23
23 | COC1C=CC=C(C)Cc2cc(O)c(Cl)c(c2)N(C)C(=O)CC(OC(=O)Nc2ccccc2)C2(C)OC2C(C)C2CC1(O)NC(=O)O2 (stereo not shown) [20-Demethoxy-20-hydroxymaytansinol 3-N-phenylcarbamate] | < 8
24 | COC1C=CC=C(C)Cc2cc(O)c(Cl)c(c2)N(C)C(=O)CC(OC(=O)C2CCCCC2)C2(C)OC2C(C)C2CC1(O)NC(=O)O2 (stereo not shown) [20-Demethoxy-20-hydroxymaytansinol 3-cyclohexanecarboxylate] | 20
25 | CCCCCC(=O)OC1CC(=O)N(C)c2cc(cc(O)c2Cl)CC(C)=CC=CC(OC)C2(O)CC(OC(=O)N2)C(C)C2OC12C (stereo not shown) [20-Demethoxy-20-hydroxymaytansinol 3-hexanoate] | 21
26 | COC1C=CC=C(C)Cc2cc(O)c(Cl)c(c2)N(C)C(=O)CC(OC(=O)c2ccc(Cl)cc2)C2(C)OC2C(C)C2CC1(O)NC(=O)O2 (stereo not shown) [20-Demethoxy-20-hydroxymaytansinol 3-p-chlorobenzoate] | 10
27 | COC1C=CC=C(C)Cc2cc(O)c(Cl)c(c2)N(C)C(=O)CC(OC(=O)c2ccccn2)C2(C)OC2C(C)C2CC1(O)NC(=O)O2 (stereo not shown) [20-Demethoxy-20-hydroxymaytansinol 3-picolinate] | 10
28 | CCC(=O)OC1CC(=O)N(C)c2cc(cc(O)c2Cl)CC(C)=CC=CC(OC)C2(O)CC(OC(=O)N2)C(C)C2OC12C (stereo not shown) [20-Demethoxy-20-hydroxymaytansinol propionate] | 15
29 | COC1C=CC=C(C)Cc2cc(O)c(Cl)c(c2)N(C)C(=O)CC(O)C2(C)OC2C(C)C2CC1(O)NC(=O)O2 (stereo not shown) [20-Demethoxy-20-hydroxymaytansinol] | < 8
30 | COC1C=CC=C(C)Cc2cc(O)c(Cl)c(c2)N(C)C(=O)CC(OC(=O)[C@H](C)N(C)C(=O)CC(C)C)C2(C)OC2C(C)C2CC1(O)NC(=O)O2 (stereo partly shown) [20-Demethoxy-20-hydroxymaytanvaline (L)] | 24
31 | CCCC(=O)OC1CC(=O)N(C)c2cc(cc(O)c2Cl)CC(C)=CC=CC(OC)C2(O)CC(OC(=O)N2)C(C)C2OC12C (stereo not shown) [PDM-3', 20-demethoxy-20-hydroxymaytansinol 3-butyrate] | 21
32 | COC1C=CC=C(C)Cc2cc(O)c(Cl)c(c2)N(C)C(=O)CC(OC(=O)CC(C)C)C2(C)OC2C(C)C2CC1(O)NC(=O)O2 (stereo not shown) [PDM-4, 20-demethoxy-20-hydroxymaytansinol 3-isovalerate] | 24

Same assay, conditions: paper disc (8 mm diam.), 0.02 ml of a 100 μg/ml solution

Row | SMILES | Antifungal activity, (φ mm), zone of growth inhibition [mm]
33 | COC1C=CC=C(C)Cc2cc(O)c(Cl)c(c2)N(C)C(=O)CC(OC(=O)Cc2ccccc2)C2(C)OC2C(C)C2CC1(O)NC(=O)O2 (stereo not shown) [20-Demethoxy-20-hydroxymaytansinol 3-phenylacetate] | 15

Test system: Tetrahymena pyriformis W
Experiment: Antiprotozoan activity, serial dilution method (MIC)
Format: cell-based
Details: pH 7, read-out: Antiprotozoan activity, MIC
Procedure: Then, with Tetrahymena pyriformis W as the test organism and a medium composed of 20 g tryptose-peptone (Difco Co.), 1 g yeast extract, 1 g glucose, 1000 ml distilled water, 10 ml 1 M phosphate buffer (pH 7.0) as the assay medium, the microorganism was incubated at 28° C. for 44 to 48 hours and the growth inhibitory activity of demethylmaytansinoid compound (I) was assayed by the serial dilution method.

Row | SMILES | MIC [µg/mL]
34 | COC1C=CC=C(C)Cc2cc(O)c(Cl)c(c2)N(C)C(=O)CC(OC(C)=O)C2(C)OC2C(C)C2CC1(O)NC(=O)O2 (stereo not shown) [20-Demethoxy-20-hydroxymaytanacine] | 10 (≈ 16.9 µM)
35 | COC1C=CC=C(C)Cc2cc(O)c(Cl)c(c2)N(C)C(=O)CC(OC(=O)[C@H](C)N(C)C(C)=O)C2(C)OC2C(C)C2CC1(O)NC(=O)O2 (stereo partly shown) [20-Demethoxy-20-hydroxymaytansine (L)] | > 16
36 | COC1C=CC=C(C)Cc2cc(O)c(Cl)c(c2)N(C)C(=O)CC(OC(=O)Nc2ccccc2)C2(C)OC2C(C)C2CC1(O)NC(=O)O2 (stereo not shown) [20-Demethoxy-20-hydroxymaytansinol 3-N-phenylcarbamate] | ≥ 8
37 | COC1C=CC=C(C)Cc2cc(O)c(Cl)c(c2)N(C)C(=O)CC(OC(=O)c2ccc(Cl)cc2)C2(C)OC2C(C)C2CC1(O)NC(=O)O2 (stereo not shown) [20-Demethoxy-20-hydroxymaytansinol 3-p-chlorobenzoate] | 4 (≈ 5.8 µM)
38 | COC1C=CC=C(C)Cc2cc(O)c(Cl)c(c2)N(C)C(=O)CC(OC(=O)c2ccccn2)C2(C)OC2C(C)C2CC1(O)NC(=O)O2 (stereo not shown) [20-Demethoxy-20-hydroxymaytansinol 3-picolinate] | ≥ 4
39 | COC1C=CC=C(C)Cc2cc(O)c(Cl)c(c2)N(C)C(=O)CC(O)C2(C)OC2C(C)C2CC1(O)NC(=O)O2 (stereo not shown) [20-Demethoxy-20-hydroxymaytansinol] | 40 (≈ 72.6 µM)
40 | COC1C=CC=C(C)Cc2cc(O)c(Cl)c(c2)N(C)C(=O)CC(OC(=O)[C@H](C)N(C)C(=O)CC(C)C)C2(C)OC2C(C)C2CC1(O)NC(=O)O2 (stereo partly shown) [20-Demethoxy-20-hydroxymaytanvaline (L)] | 2 (≈ 2.78 µM)
41 | CCCC(=O)OC1CC(=O)N(C)c2cc(cc(O)c2Cl)CC(C)=CC=CC(OC)C2(O)CC(OC(=O)N2)C(C)C2OC12C (stereo not shown) [PDM-3', 20-demethoxy-20-hydroxymaytansinol 3-butyrate] | 2 (≈ 3.22 µM)
42 | COC1C=CC=C(C)Cc2cc(O)c(Cl)c(c2)N(C)C(=O)CC(OC(=O)CC(C)C)C2(C)OC2C(C)C2CC1(O)NC(=O)O2 (stereo not shown) [PDM-4, 20-demethoxy-20-hydroxymaytansinol 3-isovalerate] | 1 (≈ 1.57 µM)

Same assay, conditions: serial dilution, 28° C., 44 to 48 hours, pH 7.0, read-out: Antiprotozoan activity, MIC

Row | SMILES | MIC [µg/mL]
43 | COC1C=CC=C(C)Cc2cc(O)c(Cl)c(c2)N(C)C(=O)CC(OC(=O)C(C)C)C2(C)OC2C(C)C2CC1(O)NC(=O)O2 (stereo not shown) [PDM-3] | 2 (≈ 3.22 µM)
